In series [1] the test system is Escherichia coli. Kind of series: Antimicrobial screening, agar dilution method. The conditions noted are these: after 10, 20, 40 and 60 minutes at all dilutions 1:100, 1:200, 1:400, 1:800. The class given is cell-based. The procedure: (§1) The antibacterial properties of the synthesized compound 2-benzo-[3,4-b]pyridine-[b,g]indeno[1′,2′:3,4]fluoreno-[1,2-d]oxonine-5,11,16,21-tetraone were studied by the method of agar dilution. Test solutions of each compound was prepared in concentration of 1% using dimethylformamide as a solvent then they are diluted in physiological solution to obtain the final experimental dilutions 1:100, 1:200, 1:400, 1:800. The effect of these substances are compared with furacillin in a controllable study. The testing microbes used were gram positive bacteria Staphylococcus aureus, gram negative bacteria Pseudomonas aeruginosa and Escherichia coli and Candida albicans fungus. The experiments used for this survey were meat-pentonlu agar (EPA) for cultivation of bacteria and Saburo environment for the fungus. Each experiment used 1 mL of test solution on each plate […]. Two drops of emulsified with microbes feel were added. All experimental samples were taken from the agar after 10, 20, 40, 60 minutes in the environment on the basis of Patrk planted. The bacteria were cultivated at a temperature of 37° C. for 1 day and the mushroom was kept in a thermostat for 2 hours at a temperature of 28° C. Then results were checked.
On the technique in general: In agar dilution, organisms are placed on agar that contains the substance at set levels.

In series [2] the test system is Pseudomonas aeruginosa. Description: Antimicrobial screening, agar dilution method. In kind it is cell-based. The conditions noted are these: after 10, 20, 40 and 60 minutes at all dilutions 1:100, 1:200, 1:400, 1:800. How it is done: as §1
Series [3] deals with Candida albicans. Kind of series: Antimicrobial screening, agar dilution method. In kind it is cell-based. As to conditions: after 10, 20, 40 and 60 minutes at all dilutions 1:100, 1:200, 1:400, 1:800. How it is done: as §1
Series [4] deals with Staphylococcus aureus. Kind of series: Antimicrobial screening, agar dilution method. In kind it is cell-based. The conditions noted are these: after 10, 20, 40 and 60 minutes at all dilutions 1:100, 1:200, 1:400, 1:800. The procedure:
as §1

What is called melting point is the temperature of the solid-liquid transition. Regarding `O=C1Oc2ncccc2-c2c(c3c4ccccc4c(=O)c3c3c2c(=O)c2ccccc23)C(=O)c2ccccc21` [2-benzo-[3,4-b]pyridine-[b,g]indeno[1′,2′:3,4]fluoreno-[1,2-d]oxonine-5,11,16,21-tetraone], the melting point was in the range of 270 to 271 °C. Moreover, the inhibition activity entry in series [1] is “highest inhibition activity”. Also, the inhibition activity entry in series [2] is “highest inhibition activity”. Also, in series [3], the inhibition activity result is listed as “highest inhibition activity”. The inhibition activity result in series [4] is “highest inhibition activity”.

The values are drawn from patent US12134622B1, “2-benzo-[3,4-b]pyridine-[b,g]indeno[1,2;3,4]fluoreno-[1,2-d]oxonine-5,11,16,21-tetraone as an antimicrobial compound” (KING FAISAL UNIVERSITY, priority 2023, dated 2024).
